# Entries after “also recorded” stand apart in the source; their conditions may differ.
# What was measured:
# [1] = Tablets made using a 1/4 inch flat face punch; type: physicochemical; settings: Example 6, aspirin tablets; for Tablet making results: 1/4 inch flat face punch
# Procedure: (a) The aspirin was mixed with the carrier under test, taking care to avoid moisture pick-up. The flavour was added to the starch with thorough mixing. The magnesium stearate was then added to the starch and this combination blended, with agitation, with the aspirin-carrier mix. (c) Tablets were made using a 1/4 inch flat face punch with the following results: […]
# [2] = Flowability: flow of 100 g tablet mix through a 3/8 inch orifice funnel; type: physicochemical; settings: for Time for 100 g of the tablet mix to flow through the 3/8 inch orifice funnel: no vibration, "No flow" = unable to flow completely without agitation
# [3] = Viscosity of isomaltulose solution in water; type: physicochemical; settings: H2O
# [4] = test system: enzyme complex in the human intestine; settings: literature clinical / in vitro studies (Holzen); cited from earlier work
# [5] = Tablet hardness: % weight loss on vibration in a container for 1 hour; type: physicochemical
# Procedure: (e) Tablet hardness was then assessed. For an objective test, the tablets were vibrated in a container for 1 hour.
# [6] = Equilibrium relative humidity / water content of isomaltulose; type: physicochemical; settings: 80% and 22° C.
# [7] = Reducing power of isomaltulose relative to glucose; type: physicochemical
# [8] = Tablets made using a 1/4 inch flat face punch; type: physicochemical; settings: Example 7, ascorbic acid tablets, in words
# [9] = Acid hydrolysis of isomaltulose; type: physicochemical; settings: 90 h at 58° C. in 2M HCl
# [10] = Tablet formation, integrity and fines during tabletting and handling; type: physicochemical
# Description: 50 g isomaltulose, 4 g gum arabic, 1 g magnesium stearate and 13 g saccharin were dry mixed, giving a flowable tabletting powder. Tablets were formed by direct compression of the powder. […]
# [11] = Solubility in water of isomaltulose; type: physicochemical
# Tablet weight = type: physicochemical; settings: Example 6, aspirin tablets
# Description: (d) The tablet weights were:
# [12] = Sweetness and taste of isomaltulose
compound,measurement,setting,value
"OC[C@H]1OC(O)[C@H](O)[C@@H](O)[C@@H]1O (stereo partly shown) [Anhydrous dextrose, reference compound]",Tablet making results,[1],As (iv)
same,Time for 100 g of the tablet mix to flow through the 3/8 inch orifice funnel,"[2]; Example 6, aspirin mix",No flow
O=C[C@H](O)[C@@H](O)[C@H](O)[C@H](O)CO [Dextrose],"Flowability, 100 g through 3/8"" orifice, no agitation","[2]; Example 7, ascorbic acid mix",Agitation required
"OC[C@H]1O[C@H](OC[C@H]2OC(O)(CO)[C@@H](O)[C@@H]2O)[C@H](O)[C@@H](O)[C@@H]1O (stereo partly drawn) [Isomaltulose, 6-O-(αglucopyranosyl)-D-fructofuranose]","viscosity at 25° C., 50% w/v, H2 O",[3],6 cp
same,fate of the constituent monosaccharides (fructose and glucose),[4],"adsorbed, metabolized and otherwise behave as fructose and glucose derived from sucrose"
same,hydrolysis by an enzyme complex in the human intestine,[4],readily hydrolyzed
same,% weight loss on vibration (tablet hardness),"[5]; Example 6, aspirin tablets, vibrated 1 hour",3.2%
same,Weight loss on vibration for 1 hour,"[5]; Example 7, ascorbic acid tablets",1.8%
same,tablet hardness,"[5]; Example 7, ascorbic acid tablets, in words",not so well on tablet hardness; also recorded: not as hard as with the specially formulated carriers
same,water content at 80% equilibrium relative humidity and 22 °C,[6],25-32 % water
same,Tablet making results,[1],Tablets successfully made; also recorded: Released from die easily; also recorded: Good shiny appearance; also recorded: Good integrity
same,"tablet making, comparison of carriers",[1]; in words,"comparable with the Dipac and Emdex, and superior to the other carriers"
same,reducing power,[7],58-62 % of that of glucose
same,dental plaque formation,Streptococcus mutans,little if any dental plaque is formed
same,metabolism by Streptococcus mutans,Streptococcus mutans; preliminary studies,metabolized by Streptococcus mutans
same,tablet quality,[8],"shiny, hard and had good appearance; also recorded: clearly superior to the dextrose, lactose and sucrose"
same,degraded at 90 h,[9],40%
same,binding power when formed into tablets,[10]; in words,unusually good binding power
same,fines during handling,[10]; tablets with isomaltulose as diluent versus comparable lactose tablets,often show less tendency to generate fines during handling
same,solubility in water compared with lactose,"[11]; in words, versus lactose",better solubility in water than lactose
same,solubility,"[11]; water, 30° C., H2O, read-out: solubility at 30° C., H2 O",460 mg/mL
same,tablet weights,Tablet weight,151 mg
same,"flowability, comparison of carriers","[2]; Example 6, aspirin mix, in words","comparable with the specially prepared products Dipac and Emdex, and better than the lactose, icing sugar or anydrous dextrose"
same,Time for 100 g of the tablet mix to flow through the 3/8 inch orifice funnel,"[2]; Example 6, aspirin mix",38 s
same,"Flowability, 100 g through 3/8"" orifice, no agitation","[2]; Example 7, ascorbic acid mix",43 s
same,flowability,"[2]; Example 7, ascorbic acid mix, in words",performed well on flowability
same,taste,[12]; in words,"pleasant, not very sweet, reasonably bland taste"
same,sweetness (relative to sucrose sweetness at 7% w/v in water),"[12]; relative to sucrose, 7% w/v in water",0.37
"OC[C@H]1O[C@@H](O[C@H]2[C@H](O)[C@@H](O)C(O)O[C@@H]2CO)[C@H](O)[C@@H](O)[C@H]1O (stereo partly shown) [Lactose, reference compound]",Tablet making results,[1],Tablet machine prone to sticking
same,tablet quality / tablet formation,"[10]; Example 4(i), direct compression with gum arabic, saccharin tablets",not possible to produce coherent tablets
same,tablet formation,"[10]; Example 4(ii), direct compression without binder, saccharin tablets",Tablets could not be made
same,Time for 100 g of the tablet mix to flow through the 3/8 inch orifice funnel,"[2]; Example 6, aspirin mix",No flow
same,"Flowability, 100 g through 3/8"" orifice, no agitation","[2]; Example 7, ascorbic acid mix",Agitation required
OC[C@H]1O[C@@](CO)(O[C@H]2O[C@H](CO)[C@@H](O)[C@H](O)[C@H]2O)[C@@H](O)[C@@H]1O [Sucrose],"Flowability, 100 g through 3/8"" orifice, no agitation","[2]; Example 7, ascorbic acid mix",Agitation required
